The record followed here is ChEMBL document CHEMBL6078706, “Deciphering the Comprehensive Structure-Activity Relationship of Sunshinamide for Breast Cancer Therapy through Dual Modulation of Apoptotic and Ferroptotic Pathways via TrxR1 and Gpx4 Inhibition” (J Med Chem, 2024).

The test system of series [1] is MDA-MB-468. Nature of the series: Induction of ferroptosis in human MDA-MB-468 cells assessed as increase in cell viability at 25 nM incubated for 48 hrs in presence of ferrostatin-1. Format: functional, cell-based.
Series [2] has as its system MDA-MB-468. Nature of the series: Induction of ferroptosis in human MDA-MB-468 cells assessed as increase in 4-HNE level at 25 nM. It counts as functional, cell-based.
In series [3] the test system is MDA-MB-468. Nature of the series: Induction of apoptosis in human MDA-MB-468 cells transfected with ATF4 SiRNA assessed as increase in caspase 3/7 activation at 25 nM measured at 12 hrs by Western blot analysis. It counts as functional, cell-based.
Series [4] relates to MDA-MB-468. Nature of the series: Antiproliferative activity against human MDA-MB-468 cells expressing TrxR1 assessed as reduction in cell viability at 50 nM incubated for 48 hrs by MTT assay. Format: functional, cell-based.
The target of series [5] is T1, Cystine/glutamate transporter (Homo sapiens) (UniProt Q9UPY5).
T1 sequence (whole entry): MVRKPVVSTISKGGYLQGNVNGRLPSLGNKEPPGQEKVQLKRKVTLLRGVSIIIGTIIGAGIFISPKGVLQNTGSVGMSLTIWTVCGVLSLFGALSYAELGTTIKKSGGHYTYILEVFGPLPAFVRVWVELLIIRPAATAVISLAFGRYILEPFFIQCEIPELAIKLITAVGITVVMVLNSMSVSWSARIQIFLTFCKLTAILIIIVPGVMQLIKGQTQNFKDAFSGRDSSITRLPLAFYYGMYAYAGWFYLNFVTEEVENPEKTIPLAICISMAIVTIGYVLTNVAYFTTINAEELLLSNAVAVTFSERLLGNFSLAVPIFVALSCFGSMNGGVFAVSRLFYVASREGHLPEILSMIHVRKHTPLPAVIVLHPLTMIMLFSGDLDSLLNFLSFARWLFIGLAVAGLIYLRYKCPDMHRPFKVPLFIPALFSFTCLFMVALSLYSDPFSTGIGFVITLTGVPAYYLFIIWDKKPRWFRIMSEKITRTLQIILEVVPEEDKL
The experiment in a line: Inhibition of Xc- in human MDA-MB-468 cells assessed as decrease in glutamate release at 25 nM incubated for 12 hrs. Format: cell-based.

Series [6] relates to MDA-MB-468. Nature of the series: Induction of endoplasmic reticulum (ER) stress-mediated apoptosis in human MDA-MB-468 cells assessed as increase in phospho-eIF2alpha level at 25 nM measured after 12 hrs by Western blot analysis. Format: functional, cell-based.
The test system of series [7] is MDA-MB-468. The experiment in a line: Induction of ferroptosis in human MDA-MB-468 cells assessed as decrease in MDA level at 25 nM in presence of ferrostatin-1. It counts as functional, cell-based.
Series [8] deals with T2, Phospholipid hydroperoxide glutathione peroxidase GPX4 (Homo sapiens) (UniProt P36969).
T2 sequence (whole entry): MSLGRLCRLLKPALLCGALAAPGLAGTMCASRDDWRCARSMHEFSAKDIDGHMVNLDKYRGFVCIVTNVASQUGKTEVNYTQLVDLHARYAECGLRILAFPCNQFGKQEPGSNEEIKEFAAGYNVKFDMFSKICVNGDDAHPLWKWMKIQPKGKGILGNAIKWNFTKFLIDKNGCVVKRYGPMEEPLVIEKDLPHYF
Nature of the series: Inhibition of GPX4 in human MDA-MB-468 cells incubated for 12 hrs in presence of NADPH. It counts as cell-based. Particulars: dose 25.0 nM.

In series [9] the test system is MDA-MB-468. The experiment in a line: Induction of endoplasmic reticulum (ER) stress-mediated apoptosis in human MDA-MB-468 cells assessed as reduction in CHOP expression at 25 nM measured for 12 hrs in presence of 4-PBA by Western blot analysis. It counts as functional, cell-based.
The next series deals with HEK293. Nature of the series: Antiproliferative activity against human HEK293 cells assessed as cell viability upto 50 nM incubated for 48 hrs by MTT assay. It counts as toxicity, cell-based. Conditions: hek293, 48 h, 0.05 µM.
Series [10] concerns MDA-MB-468. The experiment in a line: Induction of endoplasmic reticulum (ER) stress-mediated apoptosis in human MDA-MB-468 cells assessed as increase in p-PERK level at 25 nM measured after 12 hrs by Western blot analysis. Format: functional, cell-based.
The subject of series [11] is MDA-MB-468. Nature of the series: Induction of ROS production in human MDA-MB-468 cells expressing TrxR1 assessed as reduction in ROS level at 25 nM incubated for 6 hrs by DCFH-DA staining based flow cytometry analysis. It counts as functional, cell-based.
Series [12] deals with MDA-MB-468. The experiment in a line: Induction of ferroptosis in human MDA-MB-468 cells assessed as increase in MDA level at 25 nM. Format: functional, cell-based.
Series [13] concerns the target T3, Thioredoxin reductase 1, cytoplasmic (Homo sapiens) (UniProt Q16881).
T3 sequence (whole entry): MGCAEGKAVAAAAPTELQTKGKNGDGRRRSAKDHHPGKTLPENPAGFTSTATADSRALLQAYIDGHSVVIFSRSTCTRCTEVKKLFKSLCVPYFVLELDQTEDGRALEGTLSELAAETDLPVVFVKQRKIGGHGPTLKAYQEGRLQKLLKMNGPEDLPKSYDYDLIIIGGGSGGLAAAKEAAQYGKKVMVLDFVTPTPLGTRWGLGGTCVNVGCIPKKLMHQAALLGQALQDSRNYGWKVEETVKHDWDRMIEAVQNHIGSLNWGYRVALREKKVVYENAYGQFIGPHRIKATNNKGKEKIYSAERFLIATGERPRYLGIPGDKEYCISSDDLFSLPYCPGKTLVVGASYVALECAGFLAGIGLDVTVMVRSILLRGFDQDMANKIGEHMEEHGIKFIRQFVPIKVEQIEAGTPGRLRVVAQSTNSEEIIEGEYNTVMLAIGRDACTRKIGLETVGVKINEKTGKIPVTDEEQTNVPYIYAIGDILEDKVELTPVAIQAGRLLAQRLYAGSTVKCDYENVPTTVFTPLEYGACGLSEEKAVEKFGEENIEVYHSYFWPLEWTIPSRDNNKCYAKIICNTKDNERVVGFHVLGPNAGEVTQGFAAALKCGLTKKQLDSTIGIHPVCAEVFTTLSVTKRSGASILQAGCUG
Nature of the series: Inhibition of TRXR1 in human MDA-MB-468 cells incubated for 24 hrs by. It counts as cell-based.

Series [14] deals with MDA-MB-468. The experiment in a line: Induction of endoplasmic reticulum (ER) stress-mediated apoptosis in human MDA-MB-468 cells assessed as increase in ATF4 expression at 25 nM measured after 12 hrs by Western blot analysis. It counts as functional, cell-based.
In series [15] the test system is MDA-MB-468. The experiment in a line: Induction of apoptosis in CHOP knockdown human MDA-MB-468 cells assessed as increase in caspase 3/7 activation at 25 nM measured at 12 hrs by Western blot analysis. It counts as functional, cell-based.
In series [16] the test system is MDA-MB-468. Nature of the series: Induction of ferroptosis in human MDA-MB-468 cells assessed as increase in cell viability at 25 nM incubated for 48 hrs in presence of Z-VAD. Format: functional, cell-based.
Series [17] has as its system MDA-MB-468. Nature of the series: Induction of ferroptosis in human MDA-MB-468 cells assessed as decrease in lipid peroxidation level at 25 nM incubated for 6 hrs in presence of ferrostatin-1 by C11-BODIPY staining based flow cytometry analysis. It counts as functional, cell-based.
Series [18] has as its system MDA-MB-468. Nature of the series: Antiproliferative activity against human MDA-MB-468 cells expressing GPX4 assessed as cell viability at 25 nM incubated for 48 hrs by MTT assay. It counts as functional, cell-based.
Series [19] relates to MDA-MB-468. Nature of the series: Induction of endoplasmic reticulum (ER) stress-mediated apoptosis in human MDA-MB-468 cells assessed as increase in CHOP expression at 25 nM measured after 12 hrs by Western blot analysis. It counts as functional, cell-based.
Series [20] concerns MDA-MB-468. Nature of the series: Induction of ferroptosis in human MDA-MB-468 cells assessed as reduction in intracellular GSH level at 25 nM incubated for 12 hrs. It counts as functional, cell-based.

Active and inactive are the calls of the source. The rule behind the calls is not given here.

Take `CCCCCCC[C@@H]1CC(=O)N[C@H](Cc2ccccc2)C(=O)N[C@H]2CSSC[C@H](NC2=O)C(=O)O1`: the result with MDA-MB-468 [1], with MDA-MB-468 [2], in the series on MDA-MB-468 [12], with MDA-MB-468 [16], with MDA-MB-468 [18] and with MDA-MB-468 [20] was inactive. The outcome in the series with MDA-MB-468 [3], with MDA-MB-468 [4], with MDA-MB-468 [6], in the series on MDA-MB-468 [7], in the series on MDA-MB-468 [9] and in the series with MDA-MB-468 [10] was Active. Besides, the result in the series with MDA-MB-468 [11], in the series with MDA-MB-468 [14], with MDA-MB-468 [15], in the series with MDA-MB-468 [17] and with MDA-MB-468 [19] was Active. For the same molecule, in series [5], the inhibition entry is “inactive”. Also, the inhibition entry in series [8] is “Dose-dependent-effect”. Also, in the series on HEK293, the Activity result was “Non-toxic”. Also, in [13], the inhibition result was “Active”.

For the molecule `CCCCCCC[C@@H](O)CC(=O)N[C@H](Cc1ccccc1)C(=O)N[C@H]1CSSC[C@@H](C(=O)O)NC1=O`, the outcome in the series with MDA-MB-468 [1], in the series with MDA-MB-468 [2], with MDA-MB-468 [6], with MDA-MB-468 [9], with MDA-MB-468 [10] and in the series on MDA-MB-468 [12] was inactive. The result in the series with MDA-MB-468 [14], with MDA-MB-468 [16], with MDA-MB-468 [18], in the series with MDA-MB-468 [19] and with MDA-MB-468 [20] was inactive. The outcome in the series with MDA-MB-468 [3], in the series on MDA-MB-468 [4], with MDA-MB-468 [7], in the series with MDA-MB-468 [11], in the series on MDA-MB-468 [15] and in the series with MDA-MB-468 [17] was Active. In series [5], the inhibition entry was “inactive”. Moreover, the inhibition result in series [8] is “Dose-dependent-effect”. Besides, the Activity entry in the series with HEK293 is reported as “Non-toxic”. Also, in [13], the inhibition entry is “Active”.

As for `CCCCCCC[C@@H]1CC(=O)N[C@H](Cc2ccccc2)C(=O)N[C@@H](CSC)C(=O)N[C@@H](CSC)C(=O)O1`, the result with MDA-MB-468 [1], in the series with MDA-MB-468 [2], with MDA-MB-468 [6], in the series on MDA-MB-468 [9], in the series with MDA-MB-468 [10] and in the series on MDA-MB-468 [12] was inactive. Moreover, the outcome in the series with MDA-MB-468 [14], in the series on MDA-MB-468 [16], with MDA-MB-468 [18], in the series on MDA-MB-468 [19] and with MDA-MB-468 [20] was inactive. In addition, the outcome in the series with MDA-MB-468 [3], in the series with MDA-MB-468 [4], with MDA-MB-468 [7], in the series on MDA-MB-468 [11], in the series with MDA-MB-468 [15] and in the series on MDA-MB-468 [17] was Active. Further, the inhibition result in series [5] was “inactive”. The inhibition entry in series [8] was “Dose-dependent-effect”. Also, the Activity result in the series with HEK293 is “Non-toxic”. Besides, the inhibition result in [13] is “Active”.
